This is an account of results in paper PMC7217877, “N-AS-triggered SPMs are direct regulators of microglia in a model of Alzheimer’s disease” (Nature Communications, 2020).

For test [1], the target named is T1, SphK1 R56A (Homo sapiens, UniProt Q9NYA1, R56A).
T1 construct: His (N); made in house
The experiment in a line: filter binding assay of [3H] acetyl-CoA to SphK1. The text has this: (§1) Single point mutations in SphK1 (R56A, R57A, R24A, R185A, D178A, and F192A) and COX2 (S565A, N181A, T564A, and S567A) were generated using the In-Fusion Cloning Kits (Clontech) and ORF cDNA expression plasmids of human SphK1 and COX2 gene (Sino Biological Inc, HG15679-NH and HG12036-NH), according to the manufacturer’s instructions. The forward and reverse primers described in Supplementary Table 4. The SphK1 WT, SphK1 mutants, COX2 WT, and COX2 mutant plasmids were transformed in the One shot TOP 10 competent cell (Invitrogen). The bacteria were grown in Luria-Bertani (LB, Invitrogen) plates supplemented with 50 μg ml^−1 kanamycin (Sigma-Aldrich) at 37 °C. The bacterial cell pellets were resuspended in lysis buffer containing 20 mM sodium phosphate (GE Healthcare), 500 mM NaCl (GE Healthcare), 20 mM imidazole (pH 7.4) (GE Healthcare), 0.2 mg ml^−1 lysozyme (Sigma-Aldrich), 20 μg ml^−1 DNase I (Roche), 1 mM MgCl2 (Sigma-Aldrich), and 1 mM PMSF (Sigma-Aldrich) before being lysed by sonication and clarified by centrifugation at 15,493×g for 10 min. Proteins were purified from the soluble fraction using His-Spin Trap columns (GE Healthcare) and the binding and acetylation assays were performed.
(§2) Briefly, SphK1 WT and mutant enzymes (1 mU) were resuspended in 100 μl reaction buffer (20 mM HEPES; pH 7.4, 50 mM NaCl, 10 mM MgCl2, 1 mM EGTA, 0.02% Triton-X100, and 100 μM sphingosine, all from Sigma-Aldrich). […] Briefly, COX2 WT and mutant enzymes (1 mU) were resuspended in 100 μl reaction buffer (20 mM HEPES; pH 7.4, 50 mM NaCl, 10 mM MgCl2, 1 mM EGTA, and 0.02% Triton-X100, all from Sigma-Aldrich). Reactions were initiated by adding [^14C] N-AS (1–200 μM (0.1–20 μCi), ARC UK Ltd, ARC-1024) and incubated at 37 °C for 1 h. The reactions were terminated by adding 100 μl of ice-cold reaction buffer containing 5 mM cold N-AS and immediately filtered through P30 filtermat (Perkin-Elmer), followed by five washes.
(§3) The binding velocity was plotted and the Kcat and KM values were calculated from the Michaelis-Menten analysis using the Sigma-plot program (ver 10.0, Systat software Inc.).

Test [2] has as its target T2, SphK1 R185A (Homo sapiens, UniProt Q9NYA1, R185A).
T2 construct: His (N); made in house
The test can be described thus: filter binding assay of [3H] acetyl-CoA to SphK1.
Excerpt: as §1, §2, §3

Test [3] concerns the target T3, SphK1 R24A (Homo sapiens, UniProt Q9NYA1, R24A).
T3 construct: His (N); made in house
The test can be described thus: filter binding assay of [3H] acetyl-CoA to SphK1.
Excerpt: as §1, §2, §3

For test [4], the target named is T4, SphK1 R57A (Homo sapiens, UniProt Q9NYA1, R57A).
T4 construct: His (N); made in house
T4 sequence (Q9NYA1 whole entry R57A): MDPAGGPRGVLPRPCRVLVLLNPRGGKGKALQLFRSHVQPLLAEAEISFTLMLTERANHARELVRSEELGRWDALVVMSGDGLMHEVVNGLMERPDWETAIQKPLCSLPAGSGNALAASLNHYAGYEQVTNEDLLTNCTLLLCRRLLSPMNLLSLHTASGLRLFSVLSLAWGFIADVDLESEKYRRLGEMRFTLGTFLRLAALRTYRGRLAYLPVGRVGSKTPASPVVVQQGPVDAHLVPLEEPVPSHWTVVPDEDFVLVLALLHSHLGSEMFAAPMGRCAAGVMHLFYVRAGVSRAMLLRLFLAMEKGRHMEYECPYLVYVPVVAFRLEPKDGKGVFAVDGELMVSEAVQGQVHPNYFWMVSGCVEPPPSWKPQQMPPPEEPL
The experiment in a line: filter binding assay of [3H] acetyl-CoA to SphK1.
Excerpt: as §1, §2, §3

Test [5] concerns APP/PS1 mice. The experiment in a line: Imaris-based morphology of microglia (Supplementary Fig 5b; Additional Fig 2). In kind it is in vivo, mouse. The protocol:
Thioflavin S (Sigma-Aldrich) staining was carried out according to previously described procedures. We used 6E10 (mouse, 1:100, Signet, SIG39300), anti-20G10 (mouse, 1:1000, provided by D. R. Howlett, GlaxoSmithKline, Harlow, Essex, UK) for Aβ42, anti-G30 (rabbit, 1:1000, provided by D. R. Howlett) for Aβ40, SMA (mouse, 1:400, Sigma-Aldrich, A2547), AT8 (mouse, 1:500, Thermo Fisher Scientific, MN1020), Caspase-3 (mouse, 1:200, Novus Biologicals, NB100-56708), ac-S565 (rabbit, 1:100), COX2 (mouse, 1:250, Thermo Fisher Scientific, 35-8200), Iba1 (rabbit, 1:500, Wako, 019-19941 and goat, Abcam, ab5076), NeuN (mouse, 1:500, Millipore, MAB177), GFAP (rabbit, 1:500, Dako, N1506 and chicken, 1:500, Abcam, ab4674), and Lamp1 (mouse, 1:200, Abcam, ab24170). The sections were analyzed with a laser-scanning confocal microscope (FV3000; Olympus) or with a BX51 microscope (Olympus). MetaMorph software (Molecular Devices) was used to quantification. Three-dimensional reconstruction of microglia was recorded and analyzed using IMARIS software (Bitplane)[11]. For the analysis of age-dependent microglial COX2^+ CX3CR1^+ cells in WT and APP/PS1 mice, COX2 (rabbit, 1:100, Abcam, ab15191) and CX3CR1 (mouse, 1:100, BioLegend, 149008) antibody were used and the images were acquired on Alexa 488 and APC Channel with performed using Operetta CLS and Analysis Software 4.5 (Perkin-Elmer). […]

Test [6] relates to APP/PS1 mice. The experiment in a line: immunofluorescence of 6E10, Aβ40 and Aβ42 (Fig 6b-d). The test is classed as in vivo, mouse. Conditions: for 6E10 immunofluorescence quantification (Figure 6b) / Aβ40 immunofluorescence quantification (Figure 6c) / Aβ42 immunofluorescence quantification (Figure 6d): APP/PS1 + N-AS, individual animals. The protocol:
Thioflavin S (Sigma-Aldrich) staining was carried out according to previously described procedures. We used 6E10 (mouse, 1:100, Signet, SIG39300), anti-20G10 (mouse, 1:1000, provided by D. R. Howlett, GlaxoSmithKline, Harlow, Essex, UK) for Aβ42, anti-G30 (rabbit, 1:1000, provided by D. R. Howlett) for Aβ40, SMA (mouse, 1:400, Sigma-Aldrich, A2547), AT8 (mouse, 1:500, Thermo Fisher Scientific, MN1020), Caspase-3 (mouse, 1:200, Novus Biologicals, NB100-56708), ac-S565 (rabbit, 1:100), COX2 (mouse, 1:250, Thermo Fisher Scientific, 35-8200), Iba1 (rabbit, 1:500, Wako, 019-19941 and goat, Abcam, ab5076), NeuN (mouse, 1:500, Millipore, MAB177), GFAP (rabbit, 1:500, Dako, N1506 and chicken, 1:500, Abcam, ab4674), and Lamp1 (mouse, 1:200, Abcam, ab24170). The sections were analyzed with a laser-scanning confocal microscope (FV3000; Olympus) or with a BX51 microscope (Olympus). MetaMorph software (Molecular Devices) was used to quantification. Three-dimensional reconstruction of microglia was recorded and analyzed using IMARIS software (Bitplane)[11]. For the analysis of age-dependent microglial COX2^+ CX3CR1^+ cells in WT and APP/PS1 mice, COX2 (rabbit, 1:100, Abcam, ab15191) and CX3CR1 (mouse, 1:100, BioLegend, 149008) antibody were used and the images were acquired on Alexa 488 and APC Channel with performed using Operetta CLS and Analysis Software 4.5 (Perkin-Elmer).
Transgenic mouse lines over-expressing the hAPP695swe (APP) and presenilin-1M146V (PS1) mutations were originated from GlaxoSmithKline (Harlow, UK)[32] and maintained as described previously. We purchased 5×FAD mice from Jackson Labs (Stock number. 34840-JAX). Because APP/PS1 and 5xFAD mice show sex differences in disease progression, we used only male mice. To examine possible therapeutic effect of N-AS and aspirin in APP/PS1 mice, the N-AS (30 mg kg^−1, Sigma-Aldrich, 01912) was injected daily s.c. for 8 weeks to 7-months-old APP/PS1 mice until the age of 9 months, and aspirin (2 mg kg^−1, Sigma-Aldrich, A5376)[33] was administrated orally to 7-months-old APP/PS1 mice for 8 weeks. Also, to confirm possible therapeutic efficacy of N-AS in 5×FAD, the N-AS (30 mg kg^−1, Sigma-Aldrich, 01912) was injected daily s.c. for 4 weeks to 3-months-old 5×FAD mice until the age of 4 months. Block randomization method was used to allocate the animals to experimental groups. To eliminate the bias, we were blinded in experimental progress such as data collection and data analysis. Mice were housed at temperature of 22 °C and a 12 h day/12 h night cycle with free access to tap water and food pellets. All protocols were approved by the Kyungpook National University Institutional Animal Care and Use Committee.

[7] abbreviates: read-out: KM of acetyl-CoA binding to SphK1.

“And” between values parts separate entries of the source, which are not always exact repeats. Equal values may be shown once.

T1 sequence (Q9NYA1 whole entry R56A): as the sequence (Q9NYA1 whole entry R57A) above, with R56A, A57R counted along it
T3 sequence (Q9NYA1 whole entry R24A): as the sequence (Q9NYA1 whole entry R57A) above, with R24A, A57R counted along it
T2 sequence (Q9NYA1 whole entry R185A): as the sequence (Q9NYA1 whole entry R57A) above, with A57R, R185A counted along it

For `CC(=O)SCCNC(=O)CCNC(=O)[C@H](O)C(C)(C)COP(=O)(O)OP(=O)(O)OC[C@H]1O[C@@H](n2cnc3c(N)ncnc32)[C@H](O)[C@@H]1OP(=O)(O)O` [Acetyl-CoA, acetyl-CoA], the “Kcat of acetyl-CoA binding to SphK1” value is 0.000203 s⁻¹ in test [1], 0.000237 s⁻¹ in test [2], 0.000273 s⁻¹ in test [3] and 0.000305 s⁻¹ in test [4]. Also, the Km (as a rule, the substrate concentration at which the rate is half of its maximum) in test [1] (setting [7]) is 40.4 µM; in test [2] (setting [7]) it was 22.8 µM; in test [3] (setting [7]), 14.4 µM; in test [4] (setting [7]), 15.4 µM.

For the compound `CCCCCCCCCCCCC/C=C/[C@@H](O)[C@H](CO)NC(C)=O` [N-AS, N-((2S,3R,E)-1,3-Dihydroxyoctadec-4-en-2-yl)acetamide], in test [5] (APP/PS1 vs N-AS-treated APP/PS1, Additional Fig. 2 of peer review file), the “morphology of non-plaque-associated microglia” value is listed as “did not differ between the groups”. Moreover, the “morphology of microglia surrounding Aβ” value in test [5] (N-AS vs vehicle APP/PS1) is “phagocytic morphology (ameboid microglial morphology) was more evident”. In test [6] (Cortex), the “6E10 immunofluorescence quantification (Figure 6b)” value was 0.0608 and 0.09453 and 0.05939 and 0.02037 and 0.005591 and 0.04313 and 0.04886 and 0.06655; the “Aβ40 immunofluorescence quantification (Figure 6c)” value was 0.06419 and 0.04296 and 0.0589 and 0.2298 and 0.117 and 0.122 and 0.04359 and 0.05854; the “Aβ42 immunofluorescence quantification (Figure 6d)” value is 0.1554 and 0.215 and 0.1788 and 0.1001 and 0.1191 and 0.09457 and 0.1824 and 0.177. Also, in test [6] (Hippocampus), the “6E10 immunofluorescence quantification (Figure 6b)” value was 0.04847 and 0.07321 and 0.02799 and 0.04609 and 0.00742 and 0.009448 and 0.05438 and 0.09253; the “Aβ40 immunofluorescence quantification (Figure 6c)” value is 0.07041 and 0.04924 and 0.02685 and 0.04786 and 0.1308 and 0.07762 and 0.09677 and 0.1893 and 0.1045; the “Aβ42 immunofluorescence quantification (Figure 6d)” value is 0.2679 and 0.3316 and 0.148 and 0.1454 and 0.2815 and 0.3706 and 0.09586 and 0.279 and 0.395. The “Aβ levels by immunofluorescence of 6E10, Aβ40, Aβ42” value in test [6] (N-AS vs vehicle APP/PS1) is reported as “significantly lower Aβ levels”.
